Data set [1] deals with human platelet-rich plasma. Nature of the data set: U46619-induced platelet aggregation in human platelet-rich plasma. It is filed as cell-based. The note with it: U46619 1 μM. How it is done: Human platelet suspension (PS) was prepared according to the method described previously. Briefly, blood sample, freshly obtained from healthy volunteers who had taken no medications during the preceding 2 weeks, was treated with acid citrate/dextrose (ACD) in a volume ratio of 9:1. After centrifugation at 120 g, 25° C. for 9 min, platelet-rich plasma was transferred into another plastic tube and incubated with heparin (6.4 U/ml) as well as prostaglandin E1 (1 μM). Platelets were spun down by centrifugation at 500 g, 25° C. for 8 min and subsequently washed two times with Tyrode solution (NaH2PO4 0.4 mM; NaCl 136.9 mM; KCl […]; NaHCO3 11.9 mM; CaCl2 2 mM; MgCl2 2.1 mM; glucose 11.1 mM; BSA 3.5 mg/ml; pH 7.35-7.4). The washed platelets were finally suspended in Tyrode's solution and the platelet count was adjusted to 3.75×10^8 platelets/ml. For platelet-rich plasma (PRP) preparation, whole blood was anticoagulated with 1/10 vol of sodium citrate (3.8%, w/v) and centrifuged at 150 g, 25° C. for 9 min.
Platelet aggregation was measured turbidimetrically with a Lumi-aggregometer (Payton Scientific) at 37° C. under stirring condition (900 rpm). […] The extent of platelet aggregation was determined by recording the increase of light transmission relative to that of control (maximal aggregation, as 100%) for 6 min after the addition of inducer. […]

A further data set relates to washed human platelets. Nature of the data set: LDH assay in washed human platelets. The note with it: 10 μM. The class given is cell-based. The source says:
To begin with, potency of aggregation inhibition and estimated the IC50 of Ctkf6f2 on platelet aggregation caused by different agonists was investigated. […] In addition, the effect of Ctkf6f2 in platelet-rich plasma was also investigated. […] Furthermore, concentration-dependent inhibition curve in platelet suspension and platelet-rich plasma could be observed as well from FIG. 3. Moreover, LDH assay in washed human platelets with various Ctkf6f2 concentration used in the following experiments was performed.

The target in another data set is T1, TP receptor (Homo sapiens, UniProt P21731).
T1 construct: expressed in transfected cells; host or cells: HEK-293
T1 sequence (P21731 1-343): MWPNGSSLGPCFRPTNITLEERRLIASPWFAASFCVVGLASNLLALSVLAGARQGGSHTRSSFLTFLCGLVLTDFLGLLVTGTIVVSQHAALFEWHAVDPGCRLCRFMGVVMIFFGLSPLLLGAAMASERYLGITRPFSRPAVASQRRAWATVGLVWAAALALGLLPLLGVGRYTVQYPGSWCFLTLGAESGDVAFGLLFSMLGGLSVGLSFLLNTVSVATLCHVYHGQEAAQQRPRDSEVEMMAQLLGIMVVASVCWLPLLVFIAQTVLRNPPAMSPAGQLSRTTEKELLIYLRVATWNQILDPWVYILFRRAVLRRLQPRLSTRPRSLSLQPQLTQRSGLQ
Nature of the data set: [3H]SQ-29548 binding to TP receptor of recombinant HEK-293 cells. How it is done:
Freshly prepared samples of this suspension were incubated with [^3H]SQ-29548 (5 nM final concentration), for 60 min at 25° C. The displacement was initiated by addition of nstpbp5185 dissolved in the same buffer. After incubation (30 min, 25° C.), ice-cold Tris-HCl buffer (10 mM, pH 7.4) was added, the sample was rapidly filtered through a glass fiber filter, and the tube rinsed twice with ice-cold buffer. The filters were then placed in plastic scintillation vials containing an emulsion-type scintillation mixture, and the radioactivity was counted.

A further data set relates to rats. Briefly: Gastric damage in rats. Particulars: 40 μg g^−1 oral, 3 h. It is filed as in vivo. Here is the method: Rats (Wistar) were fasted overnight then given aspirin at dose of 150 mg/kg or nstpbp5185 at 40 mg/kg. Both drugs were suspended in 1% carboxymethylcellulose. Three hours later, the rats were sacrificed, the stomach excised, and the extent of hemorrhagic erosions scored by an observer unaware of treatment the rats received. Each lesion larger than 2 mm was counted for comparison. The stomach was fixed in formalin (pH, 7.4) and photographed.

The subject of the next data set is mice carotid artery. Briefly: FeCl3-induced thrombus formation in mice carotid artery. It is filed as in vivo. Particulars: intravenous administration. Here is the method: FIG. 14 The antithrombotic activity of nstpbp5185 in FeCl3-induced thrombi formation in mice carotid artery. (A) Mice were intravenously administered with Heparin (10 or 100 U kg^−1), Aspirin (40 or 80 μg g^−1), or different doses of nstpbp5185 (B). After 5 min, FeCl3 injury was induced by a filter paper saturated with ferric chloride solution (10%). After removal of the paper, carotid blood flow (ml min^−1) was monitored continuously until thromboembolism formation or for 60 min. (C) Mice were orally administered with different doses of Aspirin and nstpbp5185 (D). Both drugs were suspended in 1% CMC. Blood flow monitoring were recorded used analyzed Labchart software (AD instruments). Data are presented as the mean±SEM (n≧3). **P<0.01 and ***P<0.001 as compared with the vehicle control (DMSO).
Mice were intravenously or orally administered with different doses of nstpbp5185.

Another data set concerns platelet suspension. Briefly: U46619-stimulated platelet protein tyrosine phosphorylation. It is filed as cell-based. The note with it: 2.5 μM; U46619 1 μM. How it is done: FIG. 19 Effects of nstpbp5185 on U46619-stimulated protein tyrosine phosphorylation in platelet suspension. Platelets were incubated with nstpbp5185 (2.5 μM) or solvent control for 3 min and then stimulated with U46619 (1 μM) for the times indicated (second, s). Then platelets were lysed in SDS buffer and the lysates separated by SDS-PAGE (7.5%-15% acrylamide gradient) under reducing conditions. After electrophoresis, the proteins were transferred to PVDF membranes, and were incubated with several antiphosphotyrosine mAb before detection by using a peroxidase-linked second Ab and detected by chemiluminescence. Data are representative of three separate experiments.
Given the thromboxane receptor-blocking effect of nstpbp5185, the effect of nstpbp5185 on U46619-stimulated signal transduction in platelets was investigated. Stimulation of thromboxane receptors results in phosphorylation of PLCβ2 and activates downstream signaling pathway PKCα, PI3K, Syk, extracellular signal-regulated kinase (ERK) and focal adhesion kinase. The effect of nstpbp5185 on levels of protein tyrosine phosphorylation was examined in platelet cell lysates in different time course. […] In the presence of nstpbp5185 (2.5 μM), the overall pattern of protein tyrosine phosphorylation of signaling molecules during platelet activation was suppressed, including phospholipase Cβ2 (PLCβ2), FAK, PKCα, PI3-kinase, Syk and ERK.

The structures appear in SMILES notation. Like-named read-outs stand apart in the source and are kept apart here.

For orientation: IC50 means the concentration that inhibits the measured activity by half. In data set [1], `Cc1ccc(-c2nc3ccc(F)cc3n2Cc2cccc(F)c2)o1` [Ctkf6f2, 6-fluoro-1-(3-fluorobenzyl)-2-(5-methyl-2-furyl)benzimidazole] showed an IC50 of 3270 ± 1010 nM. Further, the “cytotoxicity to platelets (LDH assay)” value in the data set on washed human platelets is on record as “little cytotoxicity”.
As for `Cc1ccc(-c2nc3ccccc3n2Cc2ccccc2)o1` [Example 6, 1-Benzyl-2-(5-methyl-2-furyl)benzimidazole], on TP receptor (Table III arrows), the Thromboxane receptor entry is on record as “↓”. Also, the IC50 was about 100 nM on TP receptor ([3H]SQ-29548 5 nM, read-out: IC50 in displacing 3H-SQ-29548 from TP receptor expressed on HEK-293 cells) and 100 nM on TP receptor (read-out: thromboxane A2 receptor blockade IC50). The “gastric lesions (>2 mm)” value with rats is recorded as “did not cause significant lesion”. Also, the “ED50 FeCl3-induced thrombus formation” value in the data set on mice carotid artery is “≈ 2.6 μg g^−1”. For the same compound, in the data set on platelet suspension, the “protein tyrosine phosphorylation of signaling molecules (PLCβ2, FAK, PKCα, PI3-kinase, Syk, ERK)” value was “suppressed”.
